The results in this text go back to ChEMBL document CHEMBL1201862, “PubChem BioAssay data set” (2004).

For series [1], the target named is Glucose-6-phosphate 1-dehydrogenase (Homo sapiens, UniProt P11413). Briefly: inhibition of Homo sapiens G6PD, dose series – biochemical, fluorescence, selectivity assay for P. falciparum G6PD inhibitor project, dose response (AID 504792). It is filed as functional.
Series [2] is described as follows: luciferase reporter signal suppression in cells – H4 neuroglioma cells, luminescence, dose response (AID 1990). It is filed as functional, cell-based. Background: A reporter such as luciferase makes a cellular process visible.
Series [3] can be described thus: Luminescence Cell-Based Dose Response HTS to Identify Inhibitors of 5'UTR Stem-Loop Driven Prion Protein mRNA Translation in H4 Neuroglioblastoma Cells. [Related pubchem assays: 1827 (Project Summary), 1813 (Primary HTS)]. It is filed as functional.
Series [4] in a line: alpha-synuclein stem-loop luciferase translation blockers – H4 neuroglioma cells, luminescence, confirmation (AID 1988). It is filed as functional, cell-based.
The target in series [5] is T1, Short transient receptor potential channel 4 (Mus musculus, UniProt Q9QUQ5).
T1 sequence (Q9QUQ5 whole entry): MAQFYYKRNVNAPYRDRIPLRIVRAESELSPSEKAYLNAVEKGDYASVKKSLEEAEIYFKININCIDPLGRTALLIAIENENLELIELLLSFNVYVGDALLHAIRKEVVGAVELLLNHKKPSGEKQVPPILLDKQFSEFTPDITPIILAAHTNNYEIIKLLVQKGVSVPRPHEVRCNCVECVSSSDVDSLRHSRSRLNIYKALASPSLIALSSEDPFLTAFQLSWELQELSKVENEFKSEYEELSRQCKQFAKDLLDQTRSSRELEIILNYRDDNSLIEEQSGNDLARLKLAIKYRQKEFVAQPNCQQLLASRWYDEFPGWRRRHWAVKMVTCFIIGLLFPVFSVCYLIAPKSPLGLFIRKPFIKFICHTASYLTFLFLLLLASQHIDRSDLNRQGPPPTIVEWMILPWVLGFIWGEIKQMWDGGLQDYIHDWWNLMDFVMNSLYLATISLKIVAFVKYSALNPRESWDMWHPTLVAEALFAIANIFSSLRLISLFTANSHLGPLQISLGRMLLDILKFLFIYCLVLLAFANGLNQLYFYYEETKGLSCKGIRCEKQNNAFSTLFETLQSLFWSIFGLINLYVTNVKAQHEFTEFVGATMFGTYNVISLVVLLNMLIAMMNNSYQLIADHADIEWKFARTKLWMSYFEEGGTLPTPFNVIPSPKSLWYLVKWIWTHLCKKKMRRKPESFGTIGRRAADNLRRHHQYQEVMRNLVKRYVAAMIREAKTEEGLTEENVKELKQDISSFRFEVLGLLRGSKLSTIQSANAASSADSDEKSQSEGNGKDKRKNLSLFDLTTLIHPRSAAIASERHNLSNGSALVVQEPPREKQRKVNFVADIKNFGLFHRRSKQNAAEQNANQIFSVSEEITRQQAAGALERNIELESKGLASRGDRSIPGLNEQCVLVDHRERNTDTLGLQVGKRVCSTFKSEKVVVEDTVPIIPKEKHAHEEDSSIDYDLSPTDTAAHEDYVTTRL
Briefly: calcium entry via TRPC4 opening agents – cell-based, HEK293 TRPC4/mu-opioid, Fluo-4 calcium, dose response (AID 434937). Format: functional.

Series [6] in a line: NIH-3T3 fibroblast cytotoxicity, dose response, cytotoxicity control, cell-based, fluorescence, Alamar Blue, secondary assay (AID 2327).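 Further: NIH-3T3 mouse fibroblasts cultured with fluconazole at 8 µg/mL.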 It is filed as functional. In general terms: Alamar Blue is a resazurin reagent that responds to reducing activity.
Series [7] in a line: fluconazole-exposed Candida albicans growth modulators – fluorescence, retest, confirmation (AID 2467). Format: functional, cell-based.
For series [8], the target named is T2, Histone-lysine N-methyltransferase NSD2 (Homo sapiens, UniProt O96028).
T2 sequence (O96028 whole entry): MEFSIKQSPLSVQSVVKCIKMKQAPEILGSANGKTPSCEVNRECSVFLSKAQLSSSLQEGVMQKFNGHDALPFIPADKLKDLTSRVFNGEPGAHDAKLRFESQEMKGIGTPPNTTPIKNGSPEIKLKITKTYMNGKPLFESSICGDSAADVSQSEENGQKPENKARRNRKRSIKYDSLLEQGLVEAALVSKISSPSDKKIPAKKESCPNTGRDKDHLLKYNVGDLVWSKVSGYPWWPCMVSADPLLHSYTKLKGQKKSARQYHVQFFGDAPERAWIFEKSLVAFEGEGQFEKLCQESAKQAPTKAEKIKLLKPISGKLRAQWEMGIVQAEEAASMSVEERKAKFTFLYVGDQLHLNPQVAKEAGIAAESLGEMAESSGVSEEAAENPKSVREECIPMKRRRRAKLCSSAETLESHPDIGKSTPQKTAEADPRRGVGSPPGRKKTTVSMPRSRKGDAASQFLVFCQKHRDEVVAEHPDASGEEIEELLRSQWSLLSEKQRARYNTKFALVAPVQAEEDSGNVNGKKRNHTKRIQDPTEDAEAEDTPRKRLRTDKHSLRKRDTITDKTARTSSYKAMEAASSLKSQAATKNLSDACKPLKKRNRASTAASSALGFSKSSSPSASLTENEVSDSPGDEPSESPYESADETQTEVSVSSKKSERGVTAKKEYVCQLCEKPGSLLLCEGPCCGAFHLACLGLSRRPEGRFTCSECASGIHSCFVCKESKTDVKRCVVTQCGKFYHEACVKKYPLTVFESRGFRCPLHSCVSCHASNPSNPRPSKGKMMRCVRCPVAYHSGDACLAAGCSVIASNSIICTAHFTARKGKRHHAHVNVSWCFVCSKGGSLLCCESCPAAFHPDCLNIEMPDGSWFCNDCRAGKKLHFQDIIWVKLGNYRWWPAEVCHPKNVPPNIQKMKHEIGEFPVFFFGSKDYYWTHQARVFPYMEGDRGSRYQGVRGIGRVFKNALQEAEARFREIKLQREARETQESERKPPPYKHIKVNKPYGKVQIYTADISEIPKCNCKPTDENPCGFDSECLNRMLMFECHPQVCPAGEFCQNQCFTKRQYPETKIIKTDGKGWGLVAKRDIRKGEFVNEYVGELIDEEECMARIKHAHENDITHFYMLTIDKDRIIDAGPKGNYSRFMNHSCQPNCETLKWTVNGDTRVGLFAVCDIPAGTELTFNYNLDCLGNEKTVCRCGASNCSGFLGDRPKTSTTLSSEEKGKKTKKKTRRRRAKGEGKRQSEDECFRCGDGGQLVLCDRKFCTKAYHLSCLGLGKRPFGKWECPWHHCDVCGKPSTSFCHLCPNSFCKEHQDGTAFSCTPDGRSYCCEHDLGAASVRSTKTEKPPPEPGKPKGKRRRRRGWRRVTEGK
Format: biochemical.

The target in series [9] is Cytochrome P450 2C9 (Homo sapiens, UniProt P11712).
Series [10] addresses T3, Leucine aminopeptidase (Plasmodium falciparum 3D7, UniProt Q8IL11).
T3 sequence (Q8IL11 whole entry): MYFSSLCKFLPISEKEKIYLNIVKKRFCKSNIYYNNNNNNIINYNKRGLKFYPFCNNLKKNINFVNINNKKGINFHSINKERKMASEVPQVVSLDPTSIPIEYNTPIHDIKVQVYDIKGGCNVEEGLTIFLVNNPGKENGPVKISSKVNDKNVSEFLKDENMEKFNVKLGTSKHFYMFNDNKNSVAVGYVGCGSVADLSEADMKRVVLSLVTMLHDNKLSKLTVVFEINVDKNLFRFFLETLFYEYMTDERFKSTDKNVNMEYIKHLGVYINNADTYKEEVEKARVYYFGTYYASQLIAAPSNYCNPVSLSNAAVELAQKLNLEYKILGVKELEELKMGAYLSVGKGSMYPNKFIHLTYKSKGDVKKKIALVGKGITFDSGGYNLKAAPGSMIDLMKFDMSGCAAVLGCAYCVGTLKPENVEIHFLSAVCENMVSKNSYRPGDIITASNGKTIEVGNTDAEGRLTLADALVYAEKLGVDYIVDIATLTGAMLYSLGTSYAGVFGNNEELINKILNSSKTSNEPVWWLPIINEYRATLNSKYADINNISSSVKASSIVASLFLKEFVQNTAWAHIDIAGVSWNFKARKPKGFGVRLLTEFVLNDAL
The experiment in a line: P. falciparum M17LAP inhibitors, primary screen, biochemical, fluorogenic H-Leu-NHMec substrate, 1536-well (AID 1619). Format: functional.

Series [11] addresses Cytochrome P450 2C19 (Homo sapiens, UniProt P33261). The experiment in a line: Cytochrome panel assay with activity outcomes. Panel member name: p450-cyp2c19 Compounds with AC50 equal or less than 10 uM are considered active. Format: functional. Conditions: read-out: AC50.

Active and inactive are the calls of the source.

Sequence of Cytochrome P450 2C9 (P11712 whole entry): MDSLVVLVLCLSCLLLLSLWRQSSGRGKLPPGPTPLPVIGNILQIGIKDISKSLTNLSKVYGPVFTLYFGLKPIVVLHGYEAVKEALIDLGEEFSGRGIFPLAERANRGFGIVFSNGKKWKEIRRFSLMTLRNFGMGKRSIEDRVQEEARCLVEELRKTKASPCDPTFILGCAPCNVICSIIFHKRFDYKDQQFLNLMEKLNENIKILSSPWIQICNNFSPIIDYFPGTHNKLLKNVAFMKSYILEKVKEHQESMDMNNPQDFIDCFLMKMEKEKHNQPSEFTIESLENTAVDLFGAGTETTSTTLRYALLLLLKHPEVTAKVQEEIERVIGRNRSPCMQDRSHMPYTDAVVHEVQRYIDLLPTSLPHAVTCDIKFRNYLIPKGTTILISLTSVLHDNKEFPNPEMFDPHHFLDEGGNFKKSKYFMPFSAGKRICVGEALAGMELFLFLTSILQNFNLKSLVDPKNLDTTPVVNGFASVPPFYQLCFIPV
Sequence of Glucose-6-phosphate 1-dehydrogenase (P11413 whole entry): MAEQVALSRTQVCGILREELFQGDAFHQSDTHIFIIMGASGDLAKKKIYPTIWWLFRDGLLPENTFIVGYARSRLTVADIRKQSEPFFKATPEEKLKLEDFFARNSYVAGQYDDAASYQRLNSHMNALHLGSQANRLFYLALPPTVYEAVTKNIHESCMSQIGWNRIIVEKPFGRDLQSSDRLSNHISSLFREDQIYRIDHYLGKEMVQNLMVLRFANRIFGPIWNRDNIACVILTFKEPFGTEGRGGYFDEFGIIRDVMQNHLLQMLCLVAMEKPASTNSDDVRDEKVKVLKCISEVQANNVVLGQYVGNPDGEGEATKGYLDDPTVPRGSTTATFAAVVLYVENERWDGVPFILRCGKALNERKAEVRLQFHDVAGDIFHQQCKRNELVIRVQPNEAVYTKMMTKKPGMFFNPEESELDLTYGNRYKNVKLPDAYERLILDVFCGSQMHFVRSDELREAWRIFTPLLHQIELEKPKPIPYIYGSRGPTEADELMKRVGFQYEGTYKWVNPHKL
Sequence of Cytochrome P450 2C19 (P33261 whole entry): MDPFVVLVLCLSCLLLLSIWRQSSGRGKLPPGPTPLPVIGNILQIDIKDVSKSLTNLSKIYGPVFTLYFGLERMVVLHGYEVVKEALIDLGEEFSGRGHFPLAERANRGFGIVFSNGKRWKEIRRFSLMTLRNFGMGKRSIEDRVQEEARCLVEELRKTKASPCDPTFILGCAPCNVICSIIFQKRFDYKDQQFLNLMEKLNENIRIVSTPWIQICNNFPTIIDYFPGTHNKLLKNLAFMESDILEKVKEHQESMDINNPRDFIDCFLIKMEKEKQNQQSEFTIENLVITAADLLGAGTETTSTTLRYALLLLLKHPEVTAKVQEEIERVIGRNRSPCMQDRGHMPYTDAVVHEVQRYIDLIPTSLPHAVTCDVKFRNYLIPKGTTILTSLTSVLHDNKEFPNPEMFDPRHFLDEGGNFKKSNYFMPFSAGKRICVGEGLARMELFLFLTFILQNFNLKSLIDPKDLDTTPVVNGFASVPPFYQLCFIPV

In the case of `CN(C)c1cccc2c1c(NC(=O)c1ccc(Cl)cc1)nn2C`, the IC50 in series [1] is > 80 µM (inactive). In addition, the figures for the EC50 in [2], in series [3] and in series [4] were > 120 µM (not active), > 120 µM (not active) and 24.2 µM (active), respectively. As for `CCCCC(=O)NNC(=S)NC(=O)c1ccc(C)cc1`, the EC50 in [5] was 2.99 µM (active); in series [6] it was > 150 µM (inconclusive); in series [7] it was 1.43 µM (active). For the molecule `O=[N+]([O-])c1ccc(N2CCCC2)cc1N1CCCC1`, the AC50 in [8] was > 20 µM (inactive); in series [9] it was “inconclusive”. For `O=C1Nc2ccc(F)cc2C12SCCS2`, the AC50 entry in series [9] is reported as “inconclusive”.

In the case of `COc1ccc(NC(=O)CN2c3cccc4cccc(c34)S2(=O)=O)cc1`, in [10], the IC50 was 3.84 µM (active). The AC50 result in series [9] is recorded as “inconclusive”. On to `Cc1ccc2[nH]c(SCC(=O)NC3CCCc4ccccc43)nc2c1` (stereo not drawn), for which the IC50 in series [1] is > 80 µM (inactive). For the molecule `COc1ccc(NC(=O)c2cc(C(C)C)on2)cc1OC`, the AC50 in [11] is 20 µM (inconclusive); in series [9], “inconclusive”. With `CCn1c(N)[n+](CC(=O)Nc2ccc(SC(F)F)cc2)c2ccccc21`, the EC50 in [5] is 4.22 µM (active). The same measure, in the same setting: for `Cc1cc(-c2ccc(C)c(S(=O)(=O)NCCCN(Cc3ccccc3)C(C)C)c2)on1` the value was 1.33 µM (active); for `CCOC(=O)C1(CCOc2ccccc2)CCN(Cc2ccc(NC(C)=O)cc2)CC1`, 0.211 µM (active).

As a reminder, the IC50 is the concentration that inhibits the measured activity by half. As a reminder, the EC50 is the midpoint of the concentration-response curve. For orientation: AC50 means the midpoint of the concentration-response curve, whichever way the signal moves.
